Results on 5 molecules are retold here after patent US20020071842A1, “Soluble CD1 compositions and uses thereof” (priority 2000, published 2002).

Assay in all cases: Plate-bound mCD1d fusion protein hybridoma stimulation assay (IL-2 ELISA)
What all share (assay type): cell-based, mouse

In one assay the test system is 24.8.A hybridoma. The conditions noted are these: for IL-2 response to mCD1d fusion protein pre-treated with purified or synthetic lipid: 24.8.A hybridoma, compared to untreated or buffer treated fusion protein. The text has this: (§1) The CD1d-restricted T cell clones 24.7, 24.8, 24.9 (NKT cell) and 14S.6, 14S.7, 14S.10, and 14S.15 (diverse TCRs) were all derived from spleen of wild type C57BL/6 mice, as described previously (Behar, S. M. et al., J. Immunol., 162:161-7 (1999)). To generate T cell hybridomas, the activated T cells were fused to the aminopterin-sensitive BW5147 αβTCR^− thymoma cell line using PEG1500, and hybrids were selected in HAT medium (Life Technologies, Gaithersburg, Md.). Resulting TT hybridomas were tested for recognition of RMA-S cells transfected with mCD1D1 compared to untransfected RMA-S cells, as described below. […] The hybridomas are distinguished from the original T cell clones by the addition of a letter to their names. The KT/7, KT/12, KT/22, and KT/23 and Vβ/9 NKT cell hybridomas were derived from NK1.1^+ T cells enriched from spleen of C57BL/6 mice by depletion of CD8+ T cells, naive T cells, and B cells by mAbs (anti-B220, CD8, and CD62L, or anti-CD8α, CD8β, and Me114) bound to magnetic microbeads, or to plastic. The purified cells were stimulated either by the anti-CD3 KT3 mAb (KT/7, KT/12, KT/22, KT/23), or by an anti-Vβ8.2 mAb (Vβ/9), and addition of IL-2 or IL-2 and IL-7. After 4-5 days of culture the cells were fused with BW5147 thymoma cells. The VII68, VIII24, XVI9, and XV104 diverse TCR hybridomas were generated from CD4^+ T cells from class 110 mice, as described previously (Cardell, S. et al., J. Exp. Med., 182:993-1004 (1995)). The DN32D3 hybridoma was derived as described (Lantz, O., and Bendelac, A., J. Exp. Med., 180:1097-106 (1994).
(§2) To test for recognition of the mCD1d fusion protein and purified or synthetic antigens, 96 well protein A coated plates (Pierce Chemical Company) were incubated with 400-600 ng/well of the fusion protein or a negative control IgG2a antibody, RPC5.4 or UPC10, in PBS, at pH 7.2. Lipid antigens were diluted into PBS and added where specified at the indicated molar ratio of antigen to fusion protein, (when not specified the ratio was 40:1). Protein A plates containing the fusion protein and antigen were incubated 24-48 hr at 37° C., then washed three times with 200 μl/well sterile PBS, pH 7.2, and two times with 200 μl/well sterile culture medium (containing RPMI supplemented with L-glutamine and penicillin/streptomycin, Life Technologies, Gaithersburg, Md., and 10% bovine calf serum, Hyclone Laboratories, Logan, Utah). For assays in which the PI was phospholipase treated, it was first diluted into 0.01M Tris, 0.15M NaCl, pH 7.5, containing 0.25 U PI-specific phospholipase C or 0.5 U phospholipase D (Sigma, St Louis, Mo.), and incubated 30 minutes at room temperature, then added to the protein A plates as described above. For assays in which the pH was varied during antigen incubation with the fusion protein, the fusion protein and α-GalCer were diluted into a 20 mM citrate/phosphate buffer of the specified pH, which contained 0.15 M NaCl, and after incubation, the samples were neutralized by addition of 1M Tris, pH 7.5. Hybridoma cells were added to fusion protein/antigen treated plates at a concentration of 1×10^5 cells/well, in a total volume of 150 μl/well. Assays were performed using 2-6 replicate wells. In some assays, an anti-mCD1d blocking antibody (19G11) was included at a final concentration of 20 μg/ml. The plates were incubated at 37° C. for 16-20 hr, and culture supernatants were withdrawn for analysis. Each experiment was performed at least three times.
IL-2 secreted in the hybridoma stimulation assays was quantitated in a double antibody sandwich ELISA, by comparison to a standard curve of purified murine IL-2 (Pharmingen, San Diego, Calif.). Hybridoma plate stimulation supernatants (used either neat or diluted) and serially diluted IL-2 standards were added to 96 well ELISA plates coated with a rat anti-mouse IL-2 capture antibody (Pharmingen).

The test system of the next assay is 14S.15.A hybridoma. To be noted: 14S.15.A diverse TCR hybridoma; plate-bound mCD1d-IgGFc2a fusion protein preincubated with lipid antigen.
Excerpt: as §1, §2
(§3) IL-2 secreted in the hybridoma stimulation assays was quantitated in a double antibody sandwich ELISA, by comparison to a standard curve of purified murine IL-2 (Pharmingen, San Diego, Calif.). Hybridoma plate stimulation supernatants (used either neat or diluted) and serially diluted IL-2 standards were added to 96 well ELISA plates coated with a rat anti-mouse IL-2 capture antibody (Pharmingen). […]

The next assay deals with 14S.6.A hybridoma. The conditions noted are these: 14S.6.A diverse TCR hybridoma; plate-bound mCD1d-IgGFc2a fusion protein preincubated with lipid antigen.
Excerpt: as §1, §2, §3

A further assay deals with 14S.7.N hybridoma. To be noted: 14S.7.N diverse TCR hybridoma; plate-bound mCD1d-IgGFc2a fusion protein preincubated with lipid antigen.
Excerpt: as §1, §2, §3

A further assay deals with 24.7.C hybridoma. The conditions noted are these: 24 7.C NKT hybridoma; plate-bound mCD1d-IgGFc2a fusion protein preincubated with lipid antigen.
Excerpt: as §1, §2, §3

Another assay concerns 24.9.E hybridoma. The conditions noted are these: 24.9 E NKT hybridoma; plate-bound mCD1d-IgGFc2a fusion protein preincubated with lipid antigen.
Excerpt: as §1, §2, §3

For the next assay, the system named is DN32D3 hybridoma. The conditions noted are these: DN32D3 NKT hybridoma; plate-bound mCD1d-IgGFc2a fusion protein preincubated with lipid antigen.
Excerpt: as §1, §2, §3

The next assay has as its system KT/12 hybridoma. The conditions noted are these: KT/12 NKT hybridoma; plate-bound mCD1d-IgGFc2a fusion protein preincubated with lipid antigen.
Excerpt: as §1, §2, §3

The next assay relates to KT/22 hybridoma. The conditions noted are these: KT/22 NKT hybridoma; plate-bound mCD1d-IgGFc2a fusion protein preincubated with lipid antigen.
Excerpt: as §1, §2, §3

A further assay concerns KT/23 hybridoma. The conditions noted are these: KT/23 NKT hybridoma; plate-bound mCD1d-IgGFc2a fusion protein preincubated with lipid antigen.
Excerpt: as §1, §2, §3

The next assay deals with KT/7 hybridoma. The conditions noted are these: KT/7 NKT hybridoma; plate-bound mCD1d-IgGFc2a fusion protein preincubated with lipid antigen.
Excerpt: as §1, §2, §3

In a further assay the test system is VII68 hybridoma. To be noted: VII68 diverse TCR hybridoma; plate-bound mCD1d-IgGFc2a fusion protein preincubated with lipid antigen.
Excerpt: as §1, §2, §3

The next assay relates to VIII24 hybridoma. To be noted: VIII24 diverse TCR hybridoma; plate-bound mCD1d-IgGFc2a fusion protein preincubated with lipid antigen.
Excerpt: as §1, §2, §3

In the next assay the test system is Vβ/9 hybridoma. The conditions noted are these: Vβ/9 NKT hybridoma; plate-bound mCD1d-IgGFc2a fusion protein preincubated with lipid antigen.
Excerpt: as §1, §2, §3

A further assay concerns XV104 hybridoma. To be noted: XV104 diverse TCR hybridoma; plate-bound mCD1d-IgGFc2a fusion protein preincubated with lipid antigen.
Excerpt: as §1, §2, §3

For a further assay, the system named is XV19 hybridoma. To be noted: XV19 diverse TCR hybridoma; plate-bound mCD1d-IgGFc2a fusion protein preincubated with lipid antigen.
Excerpt: as §1, §2, §3

On to `CCCCCCCCCCCCCCCC(=O)O` [palmitate, Palmitic acid], for which the “IL-2 response to mCD1d fusion protein pre-treated with purified or synthetic lipid” value (from here on “IL-2 response”) in the assay with 24.8.A hybridoma is listed as “little or no stimulation”.

As to phosphatidylethanolamine [PE], the “IL-2 response” value in the assay on 24.8.A hybridoma was “dose dependent responses”. In addition, the IL-2 secretion in the assay with 14S.15.A hybridoma is given as 0 (A “0” indicates a mean of less than 50 pg/ml IL-2 was secreted); in the assay on 14S.6.A hybridoma it was “+ (“+” indicates 50-250 pg/ml)”; in the assay with 14S.7.N hybridoma, 0 (A “0” indicates a mean of less than 50 pg/ml IL-2 was secreted); in the assay on 24.7.C hybridoma, 0 (A “0” indicates a mean of less than 50 pg/ml IL-2 was secreted); in the assay on 24.9.E hybridoma, 0 (A “0” indicates a mean of less than 50 pg/ml IL-2 was secreted); with DN32D3 hybridoma, 0 (A “0” indicates a mean of less than 50 pg/ml IL-2 was secreted).

Take `O[C@H]1[C@H](O)[C@@H](O)[C@H](O)[C@@H](O)[C@H]1O` [inositol]: in the assay on 24.8.A hybridoma, the “IL-2 response” value is “little or no stimulation”.

With diacyl glyceride [DAG], the “IL-2 response” value in the assay on 24.8.A hybridoma is listed as “little or no stimulation”. Also, the IL-2 secretion in the assay with 14S.15.A hybridoma, with 14S.6.A hybridoma, in the assay with 14S.7.N hybridoma, in the assay with 24.7.C hybridoma, with 24.9.E hybridoma and in the assay on DN32D3 hybridoma was 0 (A “0” indicates a mean of less than 50 pg/ml IL-2 was secreted) each time. Besides, the IL-2 secretion in the assay on KT/12 hybridoma, in the assay with KT/22 hybridoma, with KT/23 hybridoma, in the assay with KT/7 hybridoma, in the assay with VII68 hybridoma and with VIII24 hybridoma was 0 (A “0” indicates a mean of less than 50 pg/ml IL-2 was secreted) throughout. Moreover, the IL-2 secretion with Vβ/9 hybridoma, in the assay on XV104 hybridoma and in the assay on XV19 hybridoma was 0 (A “0” indicates a mean of less than 50 pg/ml IL-2 was secreted) throughout.

For phosphatidylglycerol [PG], the “IL-2 response” value in the assay on 24.8.A hybridoma is on record as “dose dependent responses”. In addition, the IL-2 secretion result with 24.8.A hybridoma (24.8 A NKT hybridoma, plate-bound mCD1d-IgGFc2a fusion protein preincubated with lipid antigen) was “++ (“++” indicates 250-1000 pg/ml)”; in the assay on 14S.15.A hybridoma, “+ (“+” indicates 50-250 pg/ml)”; with 14S.6.A hybridoma, “+ (“+” indicates 50-250 pg/ml)”; in the assay with 14S.7.N hybridoma it was “+ (“+” indicates 50-250 pg/ml)”; in the assay on 24.7.C hybridoma, 0 (A “0” indicates a mean of less than 50 pg/ml IL-2 was secreted); in the assay with 24.9.E hybridoma it was “+ (“+” indicates 50-250 pg/ml)”. The IL-2 secretion in the assay on DN32D3 hybridoma, with KT/12 hybridoma, with KT/22 hybridoma, in the assay on KT/23 hybridoma, in the assay with KT/7 hybridoma and in the assay with VII68 hybridoma was 0 (A “0” indicates a mean of less than 50 pg/ml IL-2 was secreted) in each case. Besides, the IL-2 secretion in the assay with VIII24 hybridoma, in the assay with Vβ/9 hybridoma, in the assay on XV104 hybridoma and with XV19 hybridoma was 0 (A “0” indicates a mean of less than 50 pg/ml IL-2 was secreted) throughout.
